Assay results as given in US6362370B1, “Wood preservatives” (Lonza AG, priority 1996, dated 2002).

Assays:
[1] = Penetration depth in sapwood blocks after immersion in aqueous QAC solution; format: physicochemical; details: sapwood blocks 2.5 cm×5.0 cm×12 cm, immersion in 5% strength aqueous solution, 24 hours at 20° C.
Protocol: Fine sapwood blocks of dimensions 2.5 cm×5.0 cm×12 cm were impregnated with the QAC shown in the table by immersion in an aqueous solution of in each case 5% strength. The immersion time was a standard 24 hours (at 20° C.).

[2] = tested on: fungus-infested soil (forest soil); experiment: Soil burying method according to Schwammkeller: service life of impregnated beechwood bars; details: beechwood bars 1 cm×1 cm×40 cm, immersion in 0.5% strength solution for 24 hours, buried in fungus-infested soil, time until flexural breaking strength has fallen to 25% of the initial value
Protocol: Bars of beechwood (1 cm×1 cm×40 cm) were impregnated by immersion in a 0.5% strength solution of the SAC for 24 hours and then tested by the soil burying method according to Schwammkeller. For this, treated and untreated timbers were buried in fungus-infested soil (forest soil). The service life here is defined as the time after which the flexural breaking strength has fallen to 25% of the initial value of (untreated) comparison timbers of the same dimensions and type of wood.

## N,N-didecyl-N-methyl-N-(polyoxyethyl)ammonium [Example 9]
[1]
  Penetration depth: 6-8 mm

## N,N-didecyl-N-methyl-N-(polyoxyethyl)ammonium [Example V3, reference compound]
[1]
  Penetration depth: 2-3 mm
[2]
  Service life: 4 months

## N,N-didecyl-N-methyl-N-(polyoxyethyl)ammonium [Example V4, reference compound]
[1]
  Penetration depth: 3-4 mm

## N,N-didecyl-N-methyl-N-(polyoxyethyl)ammonium hydroxyacetate [Example 8]
[1]
  Penetration depth: 7-10 mm

## N,N-didecyl-N-methyl-N-(polyoxyethyl)ammonium lactate [Example 7]
[1]
  Penetration depth: 7-8 mm
[2]
  Service life: >9 months

## N,N-dimethyl-N-benzyl-N-(coconut alkyl)ammonium [Example 5]
[1]
  Penetration depth: 6-8 mm
[2]; listed as 10
  Service life: >9 months

## N,N-dimethyl-N-benzyl-N-(coconut alkyl)ammonium [Example 6]
[1]
  Penetration depth: 7-8 mm

## N,N-dimethyl-N-benzyl-N-(coconut alkyl)ammonium [Example V1, reference compound]
[1]
  Penetration depth: 1-3 mm
[2]; listed as V5
  Service life: 3 months

## N,N-dimethyl-N-benzyl-N-(coconut alkyl)ammonium [Example V2, reference compound]
[1]
  Penetration depth: 2-3 mm
